Source: the supplement of paper PMC10307832

Experiments:
Assay in all cases: relative viability (nuclei count vs DMSO), 5 days (fraction); higher = more cells survive
BAM7 + Phenformin = compound: CCOC1=CC=CC=C1N=NC2=C(NN(C2=O)C3=NC(=CS3)C4=CC=CC=C4)C [BAM7] + N=C(N)NC(=N)NCCc1ccccc1 [Phenformin] (partner 250 µM)
How it was run: (§1)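 Lung cancer cell lines in 1536-well plates got either a single drug or a fixed anchor-drug dose together with five library-drug doses (not always all listed) in √10 steps, by pin tool, on the day after seeding. Nuclei were counted after 5 days, and relative viability is the treated-to-vehicle ratio of nuclei counts. Values are medians of duplicate plates.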

BAM7 + Decitabine = compound: CCOC1=CC=CC=C1N=NC2=C(NN(C2=O)C3=NC(=CS3)C4=CC=CC=C4)C [BAM7] + Nc1ncn([C@H]2C[C@H](O)[C@@H](CO)O2)c(=O)n1 [Decitabine] (partner 2 µM)
How it was run: as §1

BAM7 + Luminespib = compound: CCOC1=CC=CC=C1N=NC2=C(NN(C2=O)C3=NC(=CS3)C4=CC=CC=C4)C [BAM7] + CCNC(=O)c1noc(-c2cc(C(C)C)c(O)cc2O)c1-c1ccc(CN2CCOCC2)cc1 [Luminespib] (partner 0.01 µM)
How it was run: as §1

[1] = compound: CCn1c(-c2nonc2N)nc2c(C#CC(C)(C)O)ncc(OC[C@H]3CCCNC3)c21 + C[C@]1(O)C[C@@H](c2nc(-c3ccc4ccc(-c5ccccc5)nc4c3)c3c(N)nccn32)C1 [Linsitinib] (partner 1 µM)
How it was run: as §1

| Cell Line | relative viability (BAM7 + Phenformin; first compound 0.5 µM) | relative viability (BAM7 + Phenformin; first compound 5 µM) | relative viability (BAM7 + Phenformin; first compound 15.81 µM) | relative viability (BAM7 + Phenformin; first compound 50 µM) | relative viability (BAM7 + Decitabine; first compound 0.5 µM) | relative viability (BAM7 + Decitabine; first compound 5 µM) | relative viability (BAM7 + Decitabine; first compound 15.81 µM) | relative viability (BAM7 + Decitabine; first compound 50 µM) | relative viability (BAM7 + Luminespib; first compound 0.5 µM) | relative viability (BAM7 + Luminespib; first compound 5 µM) | relative viability (BAM7 + Luminespib; first compound 15.81 µM) | relative viability (BAM7 + Luminespib; first compound 50 µM) | relative viability ([1]; first compound 0.01 µM) | relative viability ([1]; first compound 0.03162 µM) | relative viability ([1]; first compound 0.1 µM) | relative viability ([1]; first compound 0.3162 µM) | relative viability ([1]; first compound 1 µM) |
| --- | --- | --- | --- | --- | --- | --- | --- | --- | --- | --- | --- | --- | --- | --- | --- | --- | --- |
| NCI-H2342 | 0.59 | 0.739 | 0.594 | 0.521 | 0.821 | 0.669 | 0.594 | 0.551 | 0.691 | 0.726 | 0.768 | 0.735 |  |  |  |  |  |
| SK-MES-1 | 0.721 | 0.724 | 0.607 | 0.659 | 0.346 | 0.337 | 0.375 | 0.395 | 0.877 | 0.805 | 0.621 | 0.798 | 1.07 | 1.11 | 1.05 | 1.03 | 1 |
| HCC-366 | 0.576 | 0.605 | 0.668 | 0.594 | 0.325 | 0.327 | 0.319 | 0.313 |  |  |  |  | 0.598 | 0.761 | 0.498 | 0.522 | 0.668 |
| 201T | 0.465 | 0.464 | 0.474 | 0.483 | 0.844 | 0.887 | 0.837 | 0.926 | 0.984 | 1.11 | 0.793 | 1.01 | 1.05 | 1.1 | 0.986 | 1.03 | 1.02 |
| HCC-827 | 0.397 | 0.373 | 0.453 | 0.362 | 0.314 | 0.314 | 0.376 | 0.302 | 0.582 | 0.646 | 0.672 | 0.651 | 0.879 | 1.03 | 0.97 | 0.942 | 0.962 |
| NCI-H647 | 0.54 | 0.443 | 0.539 | 0.591 | 0.404 | 0.372 | 0.436 | 0.438 | 0.241 | 0.18 | 0.191 | 0.146 | 1.25 | 1.36 | 1.21 | 1.16 | 1.01 |
| NCI-H2023 | 0.446 | 0.393 | 0.37 | 0.411 | 0.218 | 0.225 | 0.191 | 0.246 | 0.939 | 0.613 | 0.586 | 0.721 | 0.683 | 0.664 | 0.708 | 0.446 | 0.569 |
| NCI-H520 | 0.668 | 0.573 | 0.704 | 0.707 | 0.54 | 0.478 | 0.484 | 0.525 | 0.207 | 0.236 | 0.243 | 0.222 | 1.03 | 1.07 | 0.849 | 0.795 | 0.674 |
| RERF-LC-KJ | 0.357 | 0.35 | 0.29 | 0.328 | 0.617 | 0.615 | 0.398 | 0.48 | 1.19 | 0.93 | 0.726 | 0.759 | 0.91 | 0.871 | 0.855 | 0.856 | 0.903 |
| A-427 | 0.401 | 0.323 | 0.288 | 0.35 | 0.531 | 0.551 | 0.543 | 0.569 | 0.949 | 0.715 | 0.886 | 1.03 | 1.13 | 1.05 | 1.15 | 1.1 | 1.13 |
| NCI-H441 | 0.866 | 1.1 | 0.779 | 0.923 | 0.291 | 0.251 | 0.235 | 0.209 | 0.411 | 0.326 | 0.381 | 0.351 | 0.592 | 0.556 | 0.67 | 0.592 | 0.657 |
| NCI-H1703 |  |  |  |  |  |  |  |  |  |  |  |  | 0.939 | 0.836 | 0.594 | 0.449 | 0.358 |
| NCI-H1792 | 0.333 | 0.219 | 0.274 | 0.369 | 0.557 | 0.458 | 0.48 | 0.516 | 0.501 | 0.46 | 0.421 | 0.509 | 0.523 | 0.567 | 0.464 | 0.491 | 0.461 |
| Calu-6 |  |  |  |  |  |  |  |  |  |  |  |  | 0.88 | 1.06 | 0.842 | 0.952 | 0.935 |
| SK-LU-1 | 0.556 | 0.733 | 0.532 | 0.619 | 0.626 | 0.629 | 0.693 | 0.697 | 0.217 | 0.18 | 0.2 | 0.186 | 1.06 | 1.23 | 1.22 | 1.19 | 1.09 |
| PC-3 [JPC-3] | 0.447 | 0.491 | 0.458 | 0.439 | 0.775 | 0.808 | 0.688 | 0.766 | 0.683 | 0.771 | 0.612 | 0.636 | 0.959 | 0.933 | 0.98 | 0.927 | 0.932 |
| EMC-BAC-2 | 0.567 | 0.533 | 0.535 | 0.61 | 0.973 | 1.05 | 1.01 | 1.12 | 1.13 | 1.28 | 1.12 | 1.15 | 0.82 | 0.852 | 0.837 | 0.828 | 0.837 |
| LK-2 | 0.507 | 0.389 | 0.466 | 0.636 | 0.352 | 0.335 | 0.347 | 0.326 | 0.221 | 0.172 | 0.228 | 0.191 | 0.7 | 0.715 | 0.422 | 0.746 | 0.559 |
| NCI-H2126 | 0.494 | 0.54 | 0.473 | 0.556 | 0.55 | 0.548 | 0.509 | 0.617 | 0.891 | 0.86 | 0.76 | 0.954 | 0.751 | 0.716 | 0.695 | 0.671 | 0.788 |
| NCI-H3122 | 0.362 | 0.371 | 0.329 | 0.35 | 0.506 | 0.514 | 0.447 | 0.444 | 0.0898 | 0.13 | 0.0656 | 0.0782 | 1.05 | 0.944 | 0.972 | 1.01 | 1.03 |
